Patent US7893023B2, “Prodrugs activated by plasmin and their use in cancer chemotherapy” (priority 2000, dated 2011)
Where two headings read alike, the source gives them in different places.

Assays:
OF-1 mice = conditions: obtained under the same conditions, known value; cited from earlier work
[1] = test system: LS174T colon tumor xenografts; assay: Chemotherapeutic activity in the LS174T human colon tumor xenograft model; type: in vivo, mice
Excerpt: Animals were kept under pathogen-free conditions with food and water supplied ad libitum, and kept for about one week before implantation of the tumors. Fragments (˜2 mm) of tumors grown in nude mice were implanted subcutaneously in both flanks of the mice. Tumors were generally allowed to grow to attain a diameter of 5-6 mm each (approximately two weeks).
The mice weighed 20.0-25.0 g at the beginning of the study. They were selected and assigned to groups in order to have equally distributed tumor volumes in the different groups. In each group, mice were labeled individually. Treatments were assigned randomly to those groups.
All dosing solutions were prepared the day of injection by dissolution in water ( 1/10 of the expected final volume) and further dilution with 0.9% (w/v) NaCl. The concentration of these solutions was checked (A475 nm determination) after sterilization by filtration (0.22 μm) and adjusted to the final required value using sterile 0.9% (w/v) NaCl).
Treatments were administered by the i.p. route. The mice received a constant volume (10 μl/g) of either saline (control group) or drug. Mortality and clinical signs were recorded up to 4 hours post-treatment on dosing days, and daily thereafter. Their behavior was equally noted. Individual body weights were generally recorded daily until day 14 and at least twice a week thereafter.
Tumor growth was monitored by two-dimensional measurements using calipers and a precision of 0.5 mm. Tumor volumes were calculated according to the following formula: Vt=[length×(width)^2]/2
Median relative tumor volumes (RTV) were calculated as tumor volumes determined at individual days divided by tumor volumes on day 0. For treated groups, growth inhibition was estimated as the percentage ratio of median RTV of treated (T) mice versus controls (C) on each day of tumor treatment. T/C(%)=[Median RTV(treated group)/Median RTV(control group)]×100
The minimal T/C value (%) for each treatment was used as a parameter for maximum efficacy. Duration of growth inhibition was assessed by considering growth delays (T-C) for one (200%) and two (400%) doublings of the median RTV).
To determine the statistical significance of any difference in median RTV between two groups, the Mann-Whitney test was used. The test was conducted at a p level of 0.05 (two tailed) using the GraphPad Prism 3.00 software.
Female Swiss nude mice were 5 weeks old upon delivery (See General Methods, Section O). They were kept under pathogen-free conditions with food and water supplied ad libitum, and kept for about one week before implantation of the tumors. Fragments (˜2 mm) of LS174T tumors grown in nude mice were implanted subcutaneously in both flanks of the mice used in the study. Tumors were left to grow for 17 days. At that time, the mice weighed about 20.5-26.5 g.
Mice were then selected and assigned to groups in order to have equally distributed tumor volumes in different groups (5-6 mice, 9-10 tumors/group). The dose levels of Compound II, DOX used in the study, were selected on the basis of a lethality study previously conducted on OF-1 normal mice. The dose of DOX was based on previous chemotherapy experiments performed in nude mice with the same dosing schedule.
Treatments were administered by the i.p. route on days 0, 1, 2, 3 and 4, the mice receiving a constant volume (10 μl/g) of either saline or the different dosing solutions. DOX was used at 3.8 μmol/kg, Compound II, DOX was used at 25.9 μmol/kg and 34.5 μmol/kg. Clinical signs (recorded 0.5, 1, 2 and 4 hours after dosing and daily between dosing days) and body weights (recorded on each day of tumor measurement) were used to assess treatment toxicity, tumor growth was monitored on days 7, 12, 15, 19, 22, 26, 29, 33 and 36 by two-dimensional measurements using calipers and a precision of 0.5 mm.

[2] = DOX 3.8 μmol/kg, Compound II, DOX lower dosage 25.9 μmol/kg, i.p. days 0-4

Description for B16-B16 murine melanoma: Male C57-B16 black mice were 5 weeks old upon delivery. The body weight of the animals was approximately 20 g at the beginning of the test (See General Methods, Section O).
The animals were divided in eight groups (5 mice per group). Confluent murine melanoma B16-B16 cells (See General Methods, Section E.) were washed twice with PBS and EDTA (See General Methods, Section F.) twice and detached with trypsin (2 min incubation at 37° C.), that was thereafter neutralized by DMEM-F12 (containing 10% of calf serum). The cells were centrifuged for 5 min at 300 g. The pellet was resuspended twice in the DMEM-F12 without serum and centrifuged 5 min at 300 g.
The number of cells per ml of DMEM-F12 was then estimated (Brucker chamber) and the dilution of 2.5×10^5 cells/ml prepared. Each animal received 200 μl of this suspension (5.0×10^4 cells) in its tail vein. The day of injection was considered day 0 of the study. […] Animals were weighed on days 0, 1, 3, 6, 8 and 14. Their behavior and eventual clinical signs were also noted. All animals were sacrificed on day 14 and autopsied.
The lung lobes were fixed in a Bouin's solution (picric acid: formaldehyde, 40%: acetic acid, 15:5:1, v/v). Every lobe immersed in the fixing solution in a Petri flask was uniformly lighted against an opaque black background. Pictures of the front and back side of every lobe were taken with the help of a light microscope, scanned and digitized. The relative surface occupied by B116-B16 colonies was then estimated with the Scion Image Program.
The individual mean values were analyzed with the Scheffe's F-test to evaluate the statistical significance of differences observed between the groups.

COc1cccc2c1C(=O)c1c(O)c3c(c(O)c1C2=O)C[C@@](O)(C(=O)CO)C[C@@H]3O[C@H]1C[C@H](N)[C@H](O)[C@H](C)O1 [DOX, Doxorubicin]
LD50 (OF-1 mice): 4.1 µmol/kg | antitumor activity ([1]; DOX 3.8 μmol/kg i.p. days 0-4): total lack of activity | tumor regression ([1]; DOX 3.8 μmol/kg i.p. days 0-4): No tumor regression | treatment-related mortality [1, 2]: No treatment-related mortality | weight loss [1, 2]: no significant weight loss | lung surface occupied by B16-B16 metastases (B16-B16 murine melanoma; 5.2 μmol/kg i.p. days 1 and 3, day 14): 44.0±6.3% | mean body weight, % of initial (B16-B16 murine melanoma; 5.2 μmol/kg, day 14): 104.7% | lung surface occupied by B16-B16 metastases (B16-B16 murine melanoma; 8.6 μmol/kg i.p. days 1 and 3, day 14): 23.4±5.7% | mean body weight, % of initial (B16-B16 murine melanoma; 8.6 μmol/kg, end of study): 110% | activity on lung metastases (B16-B16 murine melanoma; 5.2 and 8.6 μmol/kg): did not show any significant activity
